In patent US5635510A, “Substituted pyrrolidin-3-yl-alkyl-piperidines” (Merrell Pharmaceuticals Inc., priority 1994, dated 1997):

Key:
NK2 receptor [1] = biological target: T1, NK2 receptor (Bos taurus, UniProt P05363); experiment: Antagonism of NK2 receptor mediated (NKA-induced) phosphatidylinositol turnover in SKLKB82#3 cells; format: cell-based
T1 construct: expressed in transfected cells; host or cells: SKLKB82#3 cells
T1 sequence (P05363 1-384): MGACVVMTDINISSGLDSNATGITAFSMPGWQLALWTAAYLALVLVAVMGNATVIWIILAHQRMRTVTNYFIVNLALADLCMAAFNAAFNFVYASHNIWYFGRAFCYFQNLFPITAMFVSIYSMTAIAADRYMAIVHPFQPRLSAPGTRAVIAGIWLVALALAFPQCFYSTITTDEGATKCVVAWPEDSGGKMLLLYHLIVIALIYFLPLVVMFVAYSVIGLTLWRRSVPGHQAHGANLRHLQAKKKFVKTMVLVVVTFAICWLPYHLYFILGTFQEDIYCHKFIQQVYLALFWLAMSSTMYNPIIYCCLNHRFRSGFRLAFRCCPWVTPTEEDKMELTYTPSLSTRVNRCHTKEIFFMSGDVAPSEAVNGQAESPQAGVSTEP
Method: Tachykinin-mediated inositol phosphate accumulation was measured in UC11 or SKLKB82#3 cells in the presence and absence of NK1 or NK2 receptor antagonists, respectively. Tissues were incubated in Krebs-Henseleit buffer at 37° C. with 95% O2 -5% CO2 gassing. Tissues were then incubated with fresh buffer containing 100 μCi of myo-[2-3H(N)] inositol at 37° C. for 60 min with gentle gassing. After washing twice in 5 ml room temperature buffer containing 10 mM LiCl, tissues were incubated for 30 min at room temperature with a buffer change at 15 min. Buffer was removed and Krebs-Henseleit buffer (containing 40 μg/ml bacitracin, 4 μg/ml each of leupeptin and chymostatin, 0.1% bovine serum albumin and 10 mM each of thiorphan and LiCl) added. After 15 min, SP was added to UC11 cells or NKA to SKLKB82#3 cells at various concentrations to start the reaction. After incubation for 60 min at room temperature the reaction was terminated by addition of 930 μl chloroform: methanol (1:2 by volume) to each tube, followed by 310 μl chloroform and 310 μl doubly distilled water. Samples were vortexed, centrifuged, and 0.9 ml of the aqueous (top) phase removed and added to 2 ml ddH2 O. The mixture was vortexed and loaded onto a 50% Bio-Rad AG 1-X8 (formate form, 100-200 mesh) exchange column (Bio-Rad Laboratories, Hercules, Calif.). The columns were washed, in order, with: 1) 10 ml doubly distilled water, 2) 5 ml of 5 mM disodium tetraborate/60 mM sodium formate, and 3) 5 ml of 1M ammonium formate/0.1M formic acid. The third elution was collected and 1 ml counted in 7 ml scintillation fluid. A 50 μl aliquot of the organic (bottom) phase was removed, dried in a scintillation vial and counted in 7 ml scintillation fluid.
The ratio of DPM in the aqueous phase aliquot (total inositol phosphates) to the DPM in the 50 μl organic phase aliquot (total [^3 H]inositol incorporated) was calculated for each sample. Data are expressed as a percent of agonist-induced accumulation of [^3 H]-inositol phosphates over basal levels. […] Dose-response graphs were constructed and the abilities of the test compounds to inhibit tachykinin-induced phosphatidyinositol turnover determined with the aid of a computer program. […] Data is expressed as percent stimulation of total inositol phosphate accumulation over basal levels and normalized to the maximum response produced by SP. […] Schild analysis is performed using dose response curves (such as those presented in FIGS. 1a and 1b) to obtain a value indicative of the strength of a competitive antagonist and is expressed as the pA2, which is the negative logarithm of the molar concentration of antagonist which reduces the effect of a dose of agonist to one-half of that expected at the dose of agonist.

NK1 receptor = biological target: T2, NK1 receptor (Cavia porcellus, UniProt P30547); experiment: Antagonism of SP-induced plasma protein extravasation in guinea pig trachea; format: in vivo
T2 construct: evaluated in guinea pig lungs; tissue Keystone Biologicals, Cleveland, OH; host or cells: guinea pig lung
Method: SP-induced protein leakage through postcapillary venules was assessed by measuring Evans Blue dye accumulation in guinea pig trachea. Animals were anesthetized with pentobarbital then injected with Evans Blue dye (20 mg/kg, i.v., prepared in 0.9% NaCl solution). One minute after dye administration, the antagonist was administered (i.v.) followed by SP (0.3 nmole/kg, i.v.) and, after 5 min, excess dye removed from the circulation by transcardiac perfusion with 50 ml 0.9% NaCl solution. The trachea and primary bronchi were removed, blotted dry and weighed. Dye quantitation was performed spectrophotometrically ([…]) after extracting tissues in formamide for 24 hr at 50° C.. Values were subtracted from background (dye only, no agonist). ED50 (dose of compound which inhibits SP-induced plasma protein extravasation by 50%) was calculated from linear regression analysis.

NK2 receptor [2] = experiment: Antagonism of NKA-induced respiratory effects in conscious guinea pigs; format: in vivo, guinea pig; conditions: for dyspnea incidence / dyspnea onset: i.v. 20 min prior to NKA aerosol (0.05%); for dyspnea onset: mean and SEM; for effect on NKA-induced respiratory effects (in words): NKA aerosol, dose dependent
Method: In vivo experiments were performed using male Duncan Hartley guinea pigs (250-350g). Changes in conscious breathing patterns were monitored in four animals simultaneously using modified whole body plethysmography consisting of four small plexiglass boxes each connected to a reference box via Validyne DP 45-16 differential pressure transducers. The 4 boxes were equipped with an air supply line (also used for aerosol delivery) and an exhaust air line. Supply and exhaust lines were of the same length and narrow bore and arose from a common supply chamber and vented to a common exhaust chamber. This system was used to ensure that fluctuations in supply air and atmospheric pressure would remain in phase and be eliminated from the net signal by the differential pressure transducers. The analog pressure signals were digitalized via a Data Translation DT2821 A to D board. Data were collected at a rate of 100 samples/second/animal. Each cycle of pressure change was analyzed using the following parameters: rising and falling slope determined between minimum and maximum pressures, the ratio of rising over falling slope, and the magnitude of the change between initial trough pressure and peak cycle pressure. Using these values (and observing the animals) the pressure cycles were characterized into normal breaths, forced exhalations (apparent by abdominal heaving), significant respiratory events (SREs; usually coughs, less often sneezes or gasps which were characterized by transient, extremely large pressure increases which were distinguishable from noise) and movement/noise with a PCAT 286 running a System V UNIX operating system. Dyspnea was defined as a significant, sustained increase in plethysmograph pressure which was associated with an observable shift to labored breathing in the animal.
During the course of a typical experiment in which airway responsiveness to various bronchoconstricting agents was examined, aerosols were delivered for 19 min (0.33 ml/min) using a DeVilbiss Ultraneb 99 ultrasonic nebulizer and animals monitored during this time. Prior to nebulization, 1 min of resting breathing was collected to establish a baseline pressure. […] The vehicle for nebulization of all bronchoconstrictive agents was phosphate buffered saline (pH 7.4) which elicited no respiratory effects itself. Putative tachykinin antagonists were administered either (i.v.) 20 min prior to onset of aerosol exposure or orally 1 hour prior to onset (to guinea pigs after an overnight fast).

T2 sequence (P30547 whole entry): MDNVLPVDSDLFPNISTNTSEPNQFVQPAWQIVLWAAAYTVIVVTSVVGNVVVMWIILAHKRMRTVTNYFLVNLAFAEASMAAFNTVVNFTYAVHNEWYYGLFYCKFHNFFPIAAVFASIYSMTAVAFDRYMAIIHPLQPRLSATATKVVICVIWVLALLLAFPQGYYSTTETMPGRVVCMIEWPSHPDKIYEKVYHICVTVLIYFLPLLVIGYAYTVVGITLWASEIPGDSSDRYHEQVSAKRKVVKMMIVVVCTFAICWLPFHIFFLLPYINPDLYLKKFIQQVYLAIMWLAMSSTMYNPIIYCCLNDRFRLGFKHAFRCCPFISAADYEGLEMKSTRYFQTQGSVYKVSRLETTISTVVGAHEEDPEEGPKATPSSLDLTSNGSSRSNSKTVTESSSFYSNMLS

Row | SMILES | Kb (NK2 receptor [1]) [nM] | NK-2 receptor slope (NK2 receptor [1]; SKLKB82#3 cells, NKA, Schild slope, mean (95% confidence limits)) | ED50 (NK1 receptor; guinea pig, iv, i.v. 2 min prior to SP, mean (95% confidence limits), at least 3 doses, at least 4 animals per dose, read-out: ED50 for inhibition of SP-induced plasma protein extravasation) [mg/kg] | relative potency against SP-induced plasma protein extravasation (in words) (NK1 receptor; i.v.) | dyspnea incidence (NK2 receptor [2]; 1 mg/kg) [%] | dyspnea onset (NK2 receptor [2]; 1 mg/kg) [s] | dyspnea incidence (NK2 receptor [2]; 5 mg/kg) [%] | dyspnea onset (NK2 receptor [2]; 5 mg/kg) [s] | dyspnea incidence (NK2 receptor [2]; 10 mg/kg) [%] | dyspnea onset (NK2 receptor [2]; 10 mg/kg) [s] | effect on NKA-induced respiratory effects (in words) (NK2 receptor [2]) | antagonism of SP-induced plasma protein extravasation (in words) (NK1 receptor; i.v., FIG. 2) | antagonism of NKA-induced PI turnover (in words) (NK2 receptor [1]; SKLKB82#3 cells, FIG. 1b)
1 | COc1cc(C(=O)N2CCC(CCN3CCC(C(N)=O)(c4ccccc4)CC3)(c3ccc(Cl)c(Cl)c3)C2)cc(OC)c1OC (single isomer, unassigned; (+)) [Example 20, (+)-1-[2-[3-(3,4-dichloro-phenyl)-1-(3,4,5-trimethoxy-benzoyl)-pyrrolidin-3-yl]-ethyl]-4-phenylpiperidine-4-carboxylic acid amide] | 2.14 | 1.00 | – | – | – | – | – | – | – | – | – | – | –
2 | COc1cc(C(=O)N2CCC(CCN3CCC(C(N)=O)(c4ccccc4)CC3)(c3ccc(Cl)c(Cl)c3)C2)cc(OC)c1OC.Cl (single isomer, unassigned; (+)) [Example 20A, (+)-1-[2-[3-(3,4-dichloro-phenyl)-1-(3,4,5-trimethoxy-benzoyl)-pyrrolidin-3-yl]-ethyl]-4-phenyl-piperidine-4-carboxylic acid amide hydrochloride] | – | – | 0.2 | equipotent NK-1 receptor antagonists | 100 | 451 ± 30 | 90 | 706 ± 82 | 70 | 829 ± 105 | reduced the effects of NKA aerosol | – | –
3 | COc1cc(C(=O)N2CCC(CCN3CCC(C(N)=O)(c4ccccc4)CC3)(c3ccc(Cl)c(Cl)c3)C2)cc(OC)c1OC (centres unmarked) [Example 3, 1-[2-[3-(3,4-dichloro-phenyl)-1-(3,4,5-trimethoxy-benzoyl)-pyrrolidin-3-yl]-ethyl]-4-phenyl-piperidine-4-carboxylic acid amide] | – | – | – | equipotent NK-1 receptor antagonists | – | – | 86 | – | 60 | – | reduced the effects of NKA aerosol | dose related antagonism of SP-induced plasma protein extravasation in guinea pig trachea | antagonizes both NK1 (on UC11 cells) and NK2 (on SKLKB82#3) receptors in a dose-dependent manner
